From patent US11318141B2, “Methods and compositions related to STK1-targeted small molecules as antibiotic resistance breakers” (Ohio State Innovation Foundation, priority 2017, dated 2022)

Columns and labels:
[1] = target: S. aureus STKK1 (the soluble kinase domain of STK1, 280 aa) (Staphylococcus aureus, UniProt A0ABF7PGK0); experiment: In vitro kinase assay: inhibition of autophosphorylation of recombinant STKK1 (γ32P-ATP); format: biochemical; details: after 5 min pre-incubation
Procedure: For the present study, recombinant His-tag-STKK1 was created along with part of the adjacent juxta-membrane domain (1-280 aa) using the pET14b vector system and specific primers (Table-1 and Table-2) as described previously. The recombinant proteins were expressed in BL21 DE3 (pLysS) and purified using Ni^+2-NTA-affinity chromatography, dialyzed against 10 mM Tris/HCl, pH 7.5, and stored as 10% glycerol stock (500 μg/ml) at −20° C. as described previously. In vitro kinase assays were performed using 2 μg STKK1 in the presence of 1 μCi γ^32P-ATP (specific activity 3000 Ci/mMol, PerkinElmer) at 30° C. for 45 min in a final volume of 30 μl phosphorylation buffer (50 mM Tris/HCl, pH7.5, 1 mM dithiothreitol, 5 mM MgCl2, and/or 5 mM MnCl2). The inhibition of autophosphorylation of STKK1 was carried out using this assay in the presence and absence of (50 μM) individual members of the 32 prescreened small molecule compound library. Phosphorylated proteins were separated by SDS-PAGE and subsequently identified by using Coomassie stain and autoradiography. The individual phosphorylated protein bands were then excised and subjected to radioactive counting using beta-scintillation counter for quantitative analysis. Experiments were repeated at least three times for statistical analysis.

S. pyogenes SP-STK = experiment: In vitro autophosphorylation / kinase activity of SP-STK; format: biochemical

S. aureus STKK1 (the soluble kinase domain of STK1, 280 aa), sequence (A0ABF7PGK0 entry or part of it): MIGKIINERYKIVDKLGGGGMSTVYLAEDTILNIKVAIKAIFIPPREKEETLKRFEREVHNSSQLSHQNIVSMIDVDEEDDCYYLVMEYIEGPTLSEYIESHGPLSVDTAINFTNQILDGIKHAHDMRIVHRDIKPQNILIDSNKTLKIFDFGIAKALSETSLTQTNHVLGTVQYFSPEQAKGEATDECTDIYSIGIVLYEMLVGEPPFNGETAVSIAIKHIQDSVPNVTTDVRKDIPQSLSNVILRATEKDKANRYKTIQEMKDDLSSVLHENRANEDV

For `COC(=O)c1ccc2c(=O)[nH]c3c(C(=O)Nc4ccccc4)sc(=S)n3c2c1` [Inh2-B1, Methyl 5-oxo-3-(phenylcarbamoyl)-1-thioxo-4,5dihydro[1,3]thiazolo[3,4-a]quinazoline-8-carboxylate], the IC50 [1] was 49 µM and the “inhibition of the kinase activity of SP-STK of S. pyogenes” value (S. pyogenes SP-STK) was “did not inhibit the kinase activity”.
